The values below come from ChEMBL document CHEMBL1201862, “PubChem BioAssay data set” (2004).

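1) Cells in 96-well plates. 2) Compound, 48 h, 5 concentrations. 3) Linear interpolation between surrounding doses. 4) Unreached endpoint = highest concentration. The concentration for 50% growth inhibition is given as GI50.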 Calls of active or inactive are those of the source. Cut-off read from the data, not from the text of the source: active = GI50 up to about 1.1 µM and inactive = higher.

Some test systems named below: SNB-75; CAKI-1; A549; NCI-H460; MOLT-4; OVCAR-8; M14; CCRF-CEM; SF-295; U-251; UACC-257; TK-10; UACC-62; MDA-MB-435; SK-MEL-2; HCT-15; UO-31; SW-620; SN12C.
Assay in all cases: growth of human tumour cells (NCI), 48 h

`COc1ccc(C2=C(Cl)C(=O)O/C2=C\c2ccc(OC)c(Br)c2)cc1Cl`: the GI50 in the assay on SNB-75 was > 100 µM (inactive); in the assay with CAKI-1, 36.1 µM (inactive); in the assay with A549, 33.3 µM (inactive); in the assay with NCI-H460 it was 27.7 µM (inactive); in the assay with MOLT-4, 41.5 µM (inactive); with OVCAR-8, 22.7 µM (inactive). Further, the GI50 in the assay with M14 is 70.8 µM (inactive); with CCRF-CEM it was 28.1 µM (inactive); in the assay with SF-295, 15.7 µM (inactive); with U-251, 14.1 µM (inactive); in the assay on UACC-257, > 100 µM (inactive); in the assay with TK-10, 21.5 µM (inactive). Also, the GI50 with UACC-62 is 22.8 µM (inactive); in the assay with MDA-MB-435 it was > 100 µM (inactive); with SK-MEL-2, 25.2 µM (inactive); in the assay on HCT-15, 55.2 µM; in the assay with UO-31, 53.1 µM (inactive); with SW-620, > 100 µM (inactive).
`COC1(C2c3ccccc3CCN2C(=O)OC(C)(C)C)C(=O)C(c2ccccc2)=C1N(C)C` (stereo not drawn): the GI50 in the assay with SNB-75 was 43.6 µM (inactive); with CAKI-1, 45.7 µM (inactive); in the assay on SN12C, 17.1 µM (inactive); in the assay with A549, 27.5 µM (inactive); in the assay with NCI-H460, 29.8 µM (inactive); in the assay with MOLT-4, 43.3 µM (inactive). Moreover, the GI50 in the assay on OVCAR-8 was 68.7 µM (inactive); with M14, 27.3 µM (inactive); in the assay with CCRF-CEM, 38.9 µM (inactive); in the assay with SF-295 it was 30.8 µM (inactive); with U-251, 37.2 µM (inactive); in the assay with UACC-257 it was 40.6 µM (inactive). Also, the GI50 is 48.2 µM (inactive) in the assay with TK-10; 30.5 µM (inactive) with UACC-62; 22.9 µM (inactive) with MDA-MB-435; 27.3 µM (inactive) in the assay on SK-MEL-2; 30.9 µM in the assay on HCT-15; 26.8 µM (inactive) in the assay with UO-31. For the same compound, the GI50 in the assay with SW-620 is 37.8 µM (inactive).
For `CC(C)=CC(=O)Oc1ccc([N+](=O)[O-])cc1`, the GI50 was > 100 µM (inactive) with SNB-75; 20.7 µM (inactive) with CAKI-1; > 100 µM (inactive) with SN12C; > 100 µM (inactive) in the assay with A549; > 100 µM (inactive) in the assay with NCI-H460; > 100 µM (inactive) in the assay on MOLT-4. In addition, the GI50 in the assay on OVCAR-8, in the assay with M14, with CCRF-CEM, in the assay with SF-295, in the assay on U-251 and in the assay on UACC-257 was > 100 µM (inactive) throughout. The GI50 in the assay with TK-10 was > 100 µM (inactive); in the assay on UACC-62, > 100 µM (inactive); with SK-MEL-2, > 100 µM (inactive); with HCT-15, greater than 100 µM; in the assay with UO-31, > 100 µM (inactive); with SW-620, > 100 µM (inactive).
Regarding `O=S(=O)(/C=C/C(=C/c1ccccc1)S(=O)(=O)c1ccccc1)c1ccccc1`, the GI50 in the assay with SNB-75 is 1.87 µM (inactive); in the assay with CAKI-1, 1.51 µM (inactive); with SN12C it was 1.7 µM (inactive); in the assay with A549, 2.13 µM (inactive); with NCI-H460, 1.78 µM (inactive); with MOLT-4, 1.52 µM (inactive). Moreover, the GI50 with OVCAR-8 was 1.63 µM (inactive); in the assay on M14, 1.28 µM (inactive); with CCRF-CEM it was 0.778 µM (active); in the assay on SF-295 it was 1.66 µM (inactive); in the assay with U-251, 1.83 µM (inactive); with UACC-257, 1.55 µM (inactive). For the same compound, the GI50 with TK-10 was 1.85 µM (inactive); with UACC-62, 2.16 µM (inactive); with SK-MEL-2, 1.89 µM (inactive); in the assay with HCT-15, 1.51 µM; in the assay on UO-31 it was 1.82 µM (inactive); in the assay on SW-620, 2.04 µM (inactive).
